Measurements: patent publication US7629294B2, “Pyrazolopyrimidines” (Bayer CropScience LP, priority 2004, dated 2009)
Values belong to the compound of their own block, whether it stands above or below them.

Structure (SMILES): CCOP(=O)(OCC)c1cnn2c(NC(C)C(C)(C)C)c(-c3ccc(F)cc3Cl)c(Cl)nc12 (stereo not shown) [Example XXIII, diethyl {5-chloro-6-(2-chloro-4-fluorophenyl)-7-[(1,2,2-trimethylpropyl)-amino]pyrazolo[1,5-a]pyrimidin-3-yl}phosphonate]
- chromatographic logP (logP (HPLC)): 4.48

Structure (SMILES): CCOP(=O)(O)c1cnn2c(NC(C)C(C)(C)C)c(-c3ccc(F)cc3Cl)c(Cl)nc12 (stereo not shown) [Example XXIV, ethyl hydrogen {5-chloro-6-(2-chloro-4-fluorophenyl)-7-[(1,2,2-trimethylpropyl)-amino]pyrazolo[1,5-a]pyrimidin-3-yl}phosphonate]
- chromatographic logP (logP (HPLC)): 3.01

- chromatographic logP (physchem; logP): 3.76
Structure (SMILES): CCC(C)c1c(Cl)nc2c(C(=O)OC)cnn2c1N[C@@H](C)C(F)(F)F (stereo partly drawn) [methyl 5-chloro-6-(sec-butyl)-7-[(S)-3-trifluoroisopropylamino]pyrazolo[1,5-a]pyrimidine-3-carboxylate]

- chromatographic logP (physchem; logP): 4.72
Structure (SMILES): COC(=O)c1cnn2c(N[C@@H](C)C(C)C)c(C3CCCC3)c(Cl)nc12 [methyl 5-chloro-6-cyclopentyl-7-[(S)-3-methyl-2-butylamino]pyrazolo[1,5-a]pyrimidine-3-carboxylate]

- chromatographic logP (physchem; logP): 3.89
Structure (SMILES): COC(=O)c1cnn2c(N[C@@H](C)C(F)(F)F)c(C3CCCC3)c(Cl)nc12 [methyl 5-chloro-6-cyclopentyl-7-[(S)-3-trifluoroisopropylamino]pyrazolo[1,5-a]pyrimidine-3-carboxylate]

- chromatographic logP (physchem; logPs): 0.55
Structure (SMILES): COC(=O)c1cnn2c(O)c(-c3c(F)cccc3Cl)c(O)nc12 [methyl 6-(2-chloro-6-fluorophenyl)-5,7-dihydroxypyrazolo[1,5-a]pyrimidine-3-carboxylate]

- chromatographic logP (physchem; logPs): 4.6
Structure (SMILES): COC(=O)c1cnn2c(NC(C)C(C)C)c(-c3sccc3C)c(OC)nc12 (stereo not shown) [methyl 7-(1,2-dimethylpropylamino)-5-methoxy-6-(3-methylthiophen-2-yl)pyrazolo[1,5-a]-pyrimidine-3-carboxylate]
